Assay results taken from patent publication US5495000A, “Anticoagulant peptides” (Merrell Pharmaceuticals Inc., priority 1995, dated 1996).
*1 amine or outer side, *2 acyl side, *3 side chain or, on linkers, in order; H or OH if unused. Where a SMILES comes first, the peptide text is derived from it. [ ]: non-standard residue; d: D form. Cha = N[C@@H](CC1CCCCC1)C(=O)O; Suc = O=C(CCC(=O)[*:2])[*:1]

Test system: Fibrin-Clot
Test: Fibrin-Clot Inhibition
Assay type: biochemical

IC50	Compound
2.3 µM	CC[C@H](C)[C@H](NC(=O)[C@H](CC(=O)O)NC(=O)[C@H](CC(=O)O)NC(=O)[C@H](CC(C)C)NC(=O)[C@@H]1CCCN1C(=O)[C@@H](Cc1ccccc1)NC(=O)[C@H](CCC(=O)O)NC(=O)[C@H](CCC(=O)O)NC(=O)[C@H](Cc1ccccc1)NC(=O)CCC(=O)O)C(=O)N[C@@H](CCC(=O)O)C(=O)N[C@@H](CCC(N)=O)C(=O)O [Example 6, Suc-Phe-Glu-Glu-phe-Pro-Leu-Asp-Asp-Ile-Glu-Gln-OH] (Suc-FEE[dF]PLDDIEQ-OH)
7.1 µM	CC(C)C[C@H](NC(=O)[C@H](CO)NC(=O)[C@H](Cc1ccccc1)NC(=O)[C@H](CCC(=O)O)NC(=O)[C@H](CCC(=O)O)NC(=O)[C@H](Cc1ccccc1)NC(=O)CCC(=O)O)C(=O)N[C@@H](CC(=O)O)C(=O)N[C@@H](CC(=O)O)C(=O)N[C@@H](CC1CCCCC1)C(=O)N[C@@H](CCC(=O)O)C(=O)N[C@@H](CCC(N)=O)C(=O)O [Example 7, Suc-Phe-Glu-Glu-Phe-Ser-Leu-Asp-Asp-Cha-Glu-Gln-OH] (Suc-FEEFSLDD[Cha]EQ-OH)
1.8 µM	CC[C@H](C)[C@H](NC(=O)[C@H](CC(=O)O)NC(=O)[C@H](CC(=O)O)NC(=O)[C@H](CC(C)C)NC(=O)[C@H](CO)NC(=O)[C@H](Cc1ccccc1)NC(=O)[C@@H]1CCCN1C(=O)[C@H](CCC(=O)O)NC(=O)[C@H](Cc1ccccc1)NC(=O)CCC(=O)O)C(=O)N[C@@H](CCC(=O)O)C(=O)N[C@@H](CCC(N)=O)C(=O)O [Example 5, Suc-Phe-Glu-Pro-Phe-Ser-Leu-Asp-Asp-Ile-Glu-Gln-OH] (Suc-FEPFSLDDIEQ-OH)
2.7 µM	CC[C@H](C)[C@H](NC(=O)[C@H](CC(=O)O)NC(=O)[C@H](CC(=O)O)NC(=O)[C@H](CC(C)C)NC(=O)[C@H](CO)NC(=O)[C@H](Cc1ccccc1)NC(=O)[C@H](CCC(=O)O)NC(=O)[C@H](CCC(=O)O)NC(=O)[C@H](Cc1ccccc1)NC(=O)CCC(=O)O)C(=O)N[C@@H](CCC(=O)O)C(=O)N[C@@H](CCC(N)=O)C(=O)O [Example 4, Suc-Phe-Glu-Glu-Phe-Ser-Leu-Asp-Asp-Ile-Glu-Gln-OH] (Suc-FEEFSLDDIEQ-OH)
